One data set addresses T1, DNA-gyrase (Escherichia coli, UniProt P0AES4+P0AES6).
T1 construct: made in house; host or cells: E. coli N4186 and E. coli MK47
Briefly: DNA-gyrase inhibition, supercoiling method (relaxed pUC18 or pUC19 plasmid DNA as substrate). The class given is biochemical. As to conditions: E. coli DNA-gyrase. An excerpt: The inhibitory action on the DNA-gyrase activity in bacteria can be determined, for example, by means of the supercoiling method described by R. Otter and N. R. Cozzarelli in Methods in Enzymology, Vol. 100, pp. 171-180 (1983). The DNA-gyrase used was isolated from E. coli N4186 and from the sub-unit B of E. coli MK47 (Mitsuchi et al., JBL 159, 9199-9201 (1984)). Relaxed pUC18 or pUC19 plasmid DNA was used as the substrate. The results determined in this test are compiled in the following Table, with the results being expressed as the MNC (maximum non-effective concentration) in μg/ml.

The next data set in a line: Toxicity, LD50. As to conditions: in vivo.

The source of these data is patent publication US5283248A, “Amino substituted pyrimido[1,6-2]benzimidazoles” (priority 1989, dated 1994).

T1 sequence (P0AES4 whole entry, one chain of several): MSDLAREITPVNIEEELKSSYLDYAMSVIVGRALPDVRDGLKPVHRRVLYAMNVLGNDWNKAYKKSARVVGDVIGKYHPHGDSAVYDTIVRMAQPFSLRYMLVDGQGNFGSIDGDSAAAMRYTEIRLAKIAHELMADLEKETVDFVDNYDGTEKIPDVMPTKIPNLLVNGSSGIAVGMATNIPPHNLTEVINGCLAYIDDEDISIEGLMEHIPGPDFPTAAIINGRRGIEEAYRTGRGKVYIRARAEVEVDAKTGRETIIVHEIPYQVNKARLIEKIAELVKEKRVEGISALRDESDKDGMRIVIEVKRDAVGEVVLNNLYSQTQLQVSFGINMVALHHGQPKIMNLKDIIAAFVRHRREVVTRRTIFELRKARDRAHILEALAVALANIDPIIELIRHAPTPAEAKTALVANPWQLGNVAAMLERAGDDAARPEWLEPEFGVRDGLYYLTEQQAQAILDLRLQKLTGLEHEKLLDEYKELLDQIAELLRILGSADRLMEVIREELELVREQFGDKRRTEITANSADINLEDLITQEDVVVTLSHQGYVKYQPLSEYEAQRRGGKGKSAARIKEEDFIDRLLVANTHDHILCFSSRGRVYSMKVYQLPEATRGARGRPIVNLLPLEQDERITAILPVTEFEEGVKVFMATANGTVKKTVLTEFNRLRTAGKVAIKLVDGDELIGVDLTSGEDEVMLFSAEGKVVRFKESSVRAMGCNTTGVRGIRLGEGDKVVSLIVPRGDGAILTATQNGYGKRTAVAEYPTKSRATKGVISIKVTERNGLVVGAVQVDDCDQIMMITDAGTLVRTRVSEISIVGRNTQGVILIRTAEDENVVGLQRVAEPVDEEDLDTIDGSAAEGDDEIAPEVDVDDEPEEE

On to `CCn1c2cc(N3CCN(C)CC3)c(F)cc2n2c(=O)[nH]c(=O)cc12` [Example 1, 5-ethyl-8-fluoro-7-(4-methyl-1-piperazinyl)pyrimido[1,6-a]benzimidazole-1,3(2H,5H)-dione], for which the “Activity MNC (maximum non-effective concentration)” value on DNA-gyrase was determined as 2 µg/mL.

For the compound `O=C(O)C(F)(F)F.O=c1cc2n(C3CC3)c3cc(N4CCNCC4)c(F)cc3n2c(=O)[nH]1` [Example 2, 5-cyclopropyl-8-fluoro-7-(1-piperazinyl)-pyrimido[1,6-a]benzimidazole-1,3(2H,5H)-dione trifluoroacetate], the “Activity MNC (maximum non-effective concentration)” value at DNA-gyrase amounted to 0.45 µg/mL. Also, the LD50 – broadly, the dose expected to kill half of the subjects tested – in the data set “Toxicity, LD50” (iv) was 30 mg/kg; in “Toxicity, LD50” (po), more than 2000 mg/kg.

`CCn1c2cc(N3CCN(C)CC3)c(F)cc2n2c(=O)[nH]c(=S)cc12` [Example 3]: the “Activity MNC (maximum non-effective concentration)” value at DNA-gyrase was 2 µg/mL.

As for `Cl.O=c1cc2n(C3CC3)c3cc(N4CCNCC4)c(F)cc3n2c(=O)n1O` [Example 4, 5-cyclopropyl-8-fluoro-2-hydroxy-7-(1-piperazinyl)-pyrimido[1,6-a]benzimidazole-1,3(2H,5H)-dione hydrochloride], the “Activity MNC (maximum non-effective concentration)” value at DNA-gyrase was 2 µg/mL. The 50% lethal dose (LD50) in “Toxicity, LD50” (iv) is 30 mg/kg; in “Toxicity, LD50” (po), more than 4000 mg/kg.

On to `CCn1c2cc(N3CCNCC3)c(F)cc2n2c(=O)[nH]c(=O)cc12` [Example 8, 5-ethyl-8-fluoro-7-(1-piperazinyl)pyrimido[1,6-a]benzimidazole-1,3(2H,5H)-dione], for which, on DNA-gyrase, the “Activity MNC (maximum non-effective concentration)” value was 1 µg/mL.
